Measurements as given in PubChem BioAssay (NCI).
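These data come from cells grown in 96-well plates and exposed to compound for 48 hours at five concentrations. Here, GI50 denotes the concentration required for 50% inhibition of growth. TGI is the concentration that stops growth completely.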

Legend:
Assay in all cases: inhibition of tumour cell growth, NCI panel, 48 h
U251 CNS = system: U251 CNS
SK-MEL-28 melanoma = system: SK-MEL-28 melanoma
KM12 colon = system: KM12 colon
IGROV1 ovarian = system: IGROV1 ovarian
MALME-3M melanoma = system: MALME-3M melanoma
HCC-2998 colon = system: HCC-2998 colon
LOX IMVI melanoma = system: LOX IMVI melanoma
HT29 colon = system: HT29 colon
OVCAR-5 ovarian = system: OVCAR-5 ovarian
UACC-257 melanoma = system: UACC-257 melanoma
CAKI-1 renal = system: CAKI-1 renal
RPMI-8226 leukemia = system: RPMI-8226 leukemia
OVCAR-4 ovarian = system: OVCAR-4 ovarian
A498 renal = system: A498 renal
SW-620 colon = system: SW-620 colon
HCT-15 colon = system: HCT-15 colon
NCI/ADR-RES ovarian = system: NCI/ADR-RES ovarian
ACHN renal = system: ACHN renal
786-0 renal = system: 786-0 renal
M14 melanoma = system: M14 melanoma
UACC-62 melanoma = system: UACC-62 melanoma
MDA-MB-435 = system: MDA-MB-435
SN12C renal = system: SN12C renal
K-562 leukemia = system: K-562 leukemia
MDA-MB-231 breast = system: MDA-MB-231 breast
SR leukemia = system: SR leukemia
SK-OV-3 ovarian = system: SK-OV-3 ovarian
HCT-116 colon = system: HCT-116 colon
PC-3 prostate = system: PC-3 prostate

CS(=O)(=O)c1nccc(-c2c(-c3ccc(F)c(OCCc4ccccc4)c3)nc3sccn23)n1
TGI (U251 CNS): 30.2 µM
GI50 (SK-MEL-28 melanoma): 15.2 µM
TGI (SK-MEL-28 melanoma): 28.9 µM
GI50 (KM12 colon): 17.3 µM
TGI (KM12 colon): 32.6 µM
GI50 (IGROV1 ovarian): 15.4 µM
TGI (IGROV1 ovarian): 33.5 µM
GI50 (MALME-3M melanoma): 18.2 µM
TGI (MALME-3M melanoma): 33.1 µM
GI50 (HCC-2998 colon): 15.4 µM
TGI (HCC-2998 colon): 30.2 µM
GI50 (LOX IMVI melanoma): 14.9 µM
TGI (LOX IMVI melanoma): 31.8 µM
GI50 (HT29 colon): 16.7 µM
TGI (HT29 colon): 33.8 µM
GI50 (OVCAR-5 ovarian): 19.2 µM
TGI (OVCAR-5 ovarian): 44.8 µM
GI50 (UACC-257 melanoma): 15 µM
TGI (UACC-257 melanoma): 29.6 µM
GI50 (CAKI-1 renal): 15.2 µM
TGI (CAKI-1 renal): 28.5 µM
GI50 (RPMI-8226 leukemia): 20.5 µM
TGI (RPMI-8226 leukemia): 55 µM
GI50 (OVCAR-4 ovarian): 15.4 µM
TGI (OVCAR-4 ovarian): 29 µM
GI50 (A498 renal): 11.8 µM
TGI (A498 renal): 24.3 µM
GI50 (SW-620 colon): 18.4 µM
TGI (SW-620 colon): 35.8 µM
GI50 (HCT-15 colon): 16.2 µM
TGI (HCT-15 colon): 32.2 µM
GI50 (NCI/ADR-RES ovarian): 16.8 µM
TGI (NCI/ADR-RES ovarian): 34.3 µM
GI50 (ACHN renal): 15.4 µM
TGI (ACHN renal): 28.7 µM
GI50 (786-0 renal): 16.5 µM
TGI (786-0 renal): 30.8 µM
GI50 (M14 melanoma): 17.7 µM
TGI (M14 melanoma): 32.1 µM
GI50 (UACC-62 melanoma): 17.4 µM
TGI (UACC-62 melanoma): 36.7 µM
GI50 (MDA-MB-435): 16.7 µM
TGI (MDA-MB-435): 31 µM
GI50 (SN12C renal): 15.9 µM
TGI (SN12C renal): 34.4 µM
GI50 (K-562 leukemia): 20.4 µM
TGI (K-562 leukemia): 68.3 µM
GI50 (MDA-MB-231 breast): 17.6 µM
TGI (MDA-MB-231 breast): 34.4 µM
GI50 (SR leukemia): 15.6 µM
TGI (SR leukemia): 40.6 µM
GI50 (SK-OV-3 ovarian): 19.9 µM
TGI (SK-OV-3 ovarian): 45.2 µM
GI50 (HCT-116 colon): 16.3 µM
TGI (HCT-116 colon): 29.8 µM
GI50 (PC-3 prostate): 17.1 µM
TGI (PC-3 prostate): 35.6 µM
